Data from patent publication US20250222017A1, “METHODS OF USING AVERMECTIN COMPOSITIONS FOR THE TREATMENT OF NEUROLOGICAL DISORDERS AND DOSING REGIMENS” (priority 2022, published 2025).
“Also recorded” adds a separate entry of the source. Read-outs that look alike come from different tables or passages of the source.

What was measured:
EAE = assay: Experimental autoimmune encephalomyelitis (EAE) model of MS; type: in vivo; settings: EAE in C57BL/6 mice; 1, 2, 4 mg/kg oral once daily, Day 14 to Day 34
Protocol: EAE is induced in C57BL/6 mice by immunization with MOG35-55 or MOG1-12s in CFA emulsion followed by administration of pertussis toxin (PTX) in PBS. […] Fingolimod (FTY720, Gilenya) is the most commonly used positive control in this model.
Vehicle was 1.6% DMSO in water. […] These were frozen at −20° C. Every 3 to 4 days, one aliquot was thawed and diluted with water to create a fine suspension at 0.8 mg/mL (for 4 mg/kg dosing). Final DMSO concentration was 1.6%. […] FTY720 stock solution (30 mg/mL in ethanol) was prepared for all ongoing studies. Daily, the FTY720 stock solution was diluted with water to the final dosing concentration of 0.6 mg/mL.
EAE was induced on Day 0 by myelin oligodendrocyte glycoprotein (MOG35-55)/complete Freund's adjuvant (CFA) immunization, followed by pertussis toxin (PTX) injections on Days O and 1. Treatment was therapeutic, starting on Day 14. […] Treatment continued through Day 34. Mice were observed through the end of the study, Day 35.
Clinical scores were assessed as follows: 1=limp tail, 2=partial hind leg paralysis, 3=complete hind leg paralysis, 4=complete hindleg and partial front leg paralysis; 5=moribund.

human CD4+ T cells = assay: Human CD4+ T cells activated under Th17 skewing conditions, in vitro; type: cell-based; settings: data not shown
spasms = assay: Two-stage model of infantile spasms (NMDA-induced); type: in vivo, Sprague-Dawley rats; settings: spasms triggered on P15, rats
Text: A two-stage model of infantile spasms was developed (FIG. 19A). Pregnant Sprague-Dawley rats receive two injections of betamethasone on gestational (G) day 15. Offspring of those pregnancies are used for experiments during infancy, postnatal days (P) 10-15. Spasms are induced by i.p. injection of N-methyl-D-aspartic acid (NMDA), which is graded depending on the postnatal age of the subjects.
Days of dosing were P10, P11, P12, P13, P14 and P15.

focal seizures = settings: cited from earlier work
[1] = system: pentylenetetrazol (PTZ)-induced ictal brain activity; assay: Modulation of PTZ-induced seizures, BOLD fMRI; type: in vivo, male Wistar rats; settings: positive control, Wistar rats
Protocol: Functional MRI (fMRI) was performed using a high-field preclinical MRI system in anesthetized male Wistar rats in order to determine the modulation of pentylenetetrazol (PTZ)-induced ictal brain activity by chronic treatment with test compound (TC). […] Vehicle and 3 mg/kg Alprazolam served as controls (see, Table 11). Seizures were induced with PTZ in each experimental group. A schematic of the study design can be seen in FIG. 6. Various physiological parameters were also measured throughout the experiment including body weight, CO2 levels, blood pH, and heart rate. […] Vehicle and 3 mg/kg Alprazolam served as controls (see, Table 12).

ivermectin
limb paralysis (clinical score) (EAE): significantly downregulates | FoxP3 mRNA levels (human CD4+ T cells): up-regulation | increase in the percentage of Foxp3+ T cells (human CD4+ T cells): 50% | occurrence of spasms in comparison to controls (vehicle) (spasms; 2 mg/kg i.p. daily P10-P15): significantly suppressed occurrence of spasms; also recorded: significantly fewer spasms | occurrence of spasms in comparison to controls (vehicle) (spasms; 4 mg/kg i.p. daily P10-P15): significantly suppressed occurrence of spasms; also recorded: significantly fewer spasms

Cc1cc(N2CCc3cc(F)ccc3C2)cc(C)c1NC(=O)CC(C)(C)C [XEN1101]
Placebo-adjusted >50% Focal Seizure Reduction (focal seizures; 25 mg): 40% | Placebo-adjusted Median Reduction in Focal Seizure Frequency (focal seizures; 25 mg): 35%

Cc1nnc2n1-c1ccc(Cl)cc1C(c1ccccc1)=NC2 [Alprazolam]
PTZ-induced brain activity (BOLD fMRI) ([1]; 3 mg/kg i.p., 1 dose, 3 mg/kg): effectively cancelled PTZ-induced brain activity; also recorded: Vehicle vs. Alprazolam in all

COC[C@@H](NC(C)=O)C(=O)NCc1ccccc1 [VIMPAT, Lacosamide]
Placebo-adjusted >50% Focal Seizure Reduction (focal seizures; 400 mg): 17% | Placebo-adjusted Median Reduction in Focal Seizure Frequency (focal seizures; 400 mg): 15-29%

CN1C(=O)CN=C(c2ccccc2)c2cc(Cl)ccc21 [Diazepam]
PTZ-induced brain activity (BOLD fMRI) ([1]; dose not given): effectively cancelled PTZ-induced brain activity

NC(=O)N1c2ccccc2C[C@H](O)c2ccccc21 [APTIOM, Eslicarbazepine]
Placebo-adjusted >50% Focal Seizure Reduction (focal seizures; 1200 mg): 20% | Placebo-adjusted Median Reduction in Focal Seizure Frequency (focal seizures; 2000 mg): 14-24%

CC[C@@H](C(N)=O)N1CCCC1=O [KEPPRA, Leviteracetam]
Placebo-adjusted >50% Focal Seizure Reduction (focal seizures; 3000 mg): 29% | Placebo-adjusted Median Reduction in Focal Seizure Frequency (focal seizures; 3000 mg): 23-31%

CCC[C@@H]1CC(=O)N([C@@H](CC)C(N)=O)C1 [BRIVIACT, Brivaracetam]
Placebo-adjusted >50% Focal Seizure Reduction (focal seizures; 200 mg): 18% | Placebo-adjusted Median Reduction in Focal Seizure Frequency (focal seizures; 200 mg): 26%

NC(=O)O[C@@H](Cn1ncnn1)c1ccccc1Cl [XCOPRI, Cenobamate]
Placebo-adjusted >50% Focal Seizure Reduction (focal seizures; 400 mg): 39% | Placebo-adjusted Median Reduction in Focal Seizure Frequency (focal seizures; 4200 mg): 31%
